From paper PMC6961345 (Antiviral Chemistry & Chemotherapy, 2018)
Several values for one entry are separate records, joined by “and”; a condition that tells them apart may be missing. Equal values may be shown once. Entries after “also recorded” stand apart in the source; their conditions may differ. Read-outs that look alike come from different tables or passages of the source.

Assays:
[1] = tested on: influenza A/Brisbane/59/2007 (H1N1) virus; format: cell-based
[2] = tested on: A/Tennessee/1-560/2009 (H1N1)pdm09; test: microbe, parasite or virus in culture; format: cell-based, influenza A virus; settings: for EC90: two independent assays
[3] = tested on: B/Texas/06/2011; test: microbe, parasite or virus in culture; format: cell-based, influenza B virus; settings: for EC90: two independent assays
[4] = tested on: A/Perth/16/2009 (H3N2); test: microbe, parasite or virus in culture; format: cell-based, influenza A virus; settings: for EC90: two independent assays
[5] = tested on: A/Brisbane/59/2007 (H1N1); test: microbe, parasite or virus in culture; format: cell-based, influenza A virus; settings: for EC90: two independent assays
[6] = tested on: A/Anhui/1/2013 (H7N9); test: microbe, parasite or virus in culture; format: cell-based, influenza A virus; settings: for EC90: Influenza A virus, H7N9, 48 h
[7] = tested on: A/Vietnam/1203/2004 (H5N1); test: microbe, parasite or virus in culture; format: cell-based, influenza A virus; settings: for EC90: Influenza A virus, H5N1, 48 h
[8] = tested on: Differentiated NHBE cells; settings: for enisamium uptake: 1000 µM, 2000 µM (Figure 2 legend)
[9] = tested on: HA protein (A/Brisbane/59/2007); format: cell-based, influenza A virus
[10] = tested on: influenza A/Brisbane/59/2007 (H1N1) virus; format: cell-based; remark: listed apart in the source
[11] = tested on: segment 7 viral, complementary, and messenger RNA (A/Brisbane/59/2007); format: cell-based, influenza A virus; settings: 24 h incubation
[12] = tested on: Undifferentiated NHBE cells; settings: 2000 µM enisamium chloride, 24 h
[13] = tested on: MDCK cells; settings: 100 µM enisamium iodide, 24 h, n = 3 wells
[14] = tested on: influenza A/Brisbane/59/2007 (H1N1) virus; test: Time-of-addition experiment in dNHBE cells; format: cell-based
[15] = tested on: influenza A and B viruses; test: microbe, parasite or virus in culture; format: cell-based
[16] = tested on: viral M gene RNA (A/Brisbane/59/2007); format: cell-based, influenza A virus; settings: 8, 12, 18 and 24 h
[17] = CC50 divided by EC90, dNHBE cells

## CCC(CC)O[C@@H]1C=C(C(=O)O)C[C@H](N)[C@H]1NC(C)=O [oseltamivir carboxylate]
[1]
  inhibition of virus replication at 24 and 48 h postinfection: inhibited virus replication
[2]; Influenza A virus, H1N1, 48 h
  EC90: < 1 µM
[3]; Influenza B virus, 48 h
  EC90: < 1 µM
[4]; Influenza A virus, H3N2, 48 h
  EC90: < 1 µM
[5]; Influenza A virus, H1N1, 48 h
  EC90: < 1 µM
[6]
  EC90: < 1 µM
[7]
  EC90: < 1 µM

## C[n+]1ccc(C(=O)NCc2ccccc2)cc1 [enisamium, N-methyl-4-benzylcarbamidopyridinium]
[8]; 10 µM enisamium, 24 h
  Intracellular concentration of enisamium (mean ± SD): 36.8 ng/10^6 cells and 36.8 ± 3.9 ng/10^6 cells
  Permeability (mean ± SD): 1.40 ± 0.15%
[8]; 50 µM enisamium, 24 h
  Intracellular concentration of enisamium (mean ± SD): 213 ng/10^6 cells and 213 ± 34 ng/10^6 cells
  Permeability (mean ± SD): 1.62 ± 0.26%
[8]; 100 µM enisamium, 24 h
  Intracellular concentration of enisamium (mean ± SD): 410 ng/10^6 cells and 410 ± 77 ng/10^6 cells
  Permeability (mean ± SD): 1.56 ± 0.29%
[8]; 500 µM enisamium, 24 h
  Intracellular concentration of enisamium (mean ± SD): 1727 ng/10^6 cells and 1727 ± 108 ng/10^6 cells
  Permeability (mean ± SD): 1.31 ± 0.08%
[8]; 1000 µM enisamium, 24 h
  Intracellular concentration of enisamium (mean ± SD): 3009 ng/10^6 cells and 3009 ± 132 ng/10^6 cells
  Permeability (mean ± SD): 1.15 ± 0.05%
[8]; 2000 µM enisamium chloride, 24 h, n = 3 wells
  Concentration of enisamium, Intracellular (mean ± SD): 10,700 ± 1900 ng/10^6 cells
[8]; 10-1000 µM enisamium, 24 h
  Permeability, all concentrations tested: 1.1–1.6%
[8]; exposure 0.25 h
  enisamium uptake: 482 ng/10^6 cells
[8]; exposure 24 h
  enisamium uptake: 2732 ng/10^6 cells
[8]; ratio intracellular to initial input, 2000 µM enisamium chloride, 24 h
  Permeability (mean ± SD): 1.9% and 1.90 ± 0.20%
[1]; 100 and 500 µM, 24 h pretreatment
  antiviral effect at lower concentrations: did not appreciably show an antiviral effect
[1]; dNHBE cells
  intracellular concentration required for achieving an antiviral activity: exceeds 1885 ng/10^6 cells
[2]; [17]
  Selectivity index: 34
[2]; Influenza A virus, H1N1, 48 h
  EC90: 233 µM
[2]
  EC90: 351 µM
[3]; [17]
  Selectivity index: 64
[3]; Influenza B virus, 48 h
  EC90: 105 µM
[3]
  EC90: 209 µM
[9]
  amount of detectable HA protein: markedly decreased
[4]; [17]
  Selectivity index: 30
[4]; Influenza A virus, H3N2, 48 h
  EC90: 287 µM
[4]
  EC90: 375 µM
[10]
  Antiviral activity in MDCK cells (plaque number/size, virus titers): no antiviral activity was found; also recorded: did not reduce; also recorded: ineffective
[11]
  inhibition of viral RNA synthesis: nearly a complete inhibition
[12]; n = 3 wells
  Concentration of enisamium, Intracellular (mean ± SD): 4110 ± 830 ng/10^6 cells
[12]; ratio intracellular to initial input
  Permeability (mean ± SD): 0.85 ± 0.21%
[13]
  Concentration of enisamium, Intracellular (mean ± SD): 27.9 ± 1.4 ng/10^6 cells
[5]; [17]
  Selectivity index: 23
[5]; Influenza A virus, H1N1, 48 h
  EC90: 412 µM
[5]
  EC90: 466 µM
[14]
  inhibition of virus replication (virus yield reduction): 2.3–2.6 log10TCID50/ml
  reductions in virus titers: ≥ 100 fold
  virus yield reduction: 1.3 log10TCID50/ml and 0.7 log10TCID50/ml
[15]; Influenza A virus, read-out: 90% effective (EC90) concentration range
  EC90: 157 to 439 µM
[15]; at certain concentrations, dNHBE cells
  reduction of virus titers: 100 fold
[15]; range over all viruses tested, dNHBE cells
  Selectivity index values (CC50 divided by EC90): 23- to 64 and > 20
[6]
  Selectivity index: 24
  EC90: 410 µM
[16]
  viral M gene RNA versus untreated cells: lower
[7]
  Selectivity index: 25
  EC90: 400 µM
